Test results taken from ChEMBL document CHEMBL1127199, “Design of C-terminal peptide antagonists of endothelin: structure-activity relationships of ET-[1621, D-His16]” (Bioorg Med Chem Lett, 1993).
Where a SMILES comes first, the peptide text is derived from it. [ ]: non-standard residue; d: D form.

How the values were obtained:
[1] = biological target: T1, Endothelin receptor type B (Rattus norvegicus, UniProt P21451); assay: Displacement of [125I]ET1 from Endothelin B receptor of rat cerebellum; assay type: tissue-based
T1 sequence (P21451 whole entry): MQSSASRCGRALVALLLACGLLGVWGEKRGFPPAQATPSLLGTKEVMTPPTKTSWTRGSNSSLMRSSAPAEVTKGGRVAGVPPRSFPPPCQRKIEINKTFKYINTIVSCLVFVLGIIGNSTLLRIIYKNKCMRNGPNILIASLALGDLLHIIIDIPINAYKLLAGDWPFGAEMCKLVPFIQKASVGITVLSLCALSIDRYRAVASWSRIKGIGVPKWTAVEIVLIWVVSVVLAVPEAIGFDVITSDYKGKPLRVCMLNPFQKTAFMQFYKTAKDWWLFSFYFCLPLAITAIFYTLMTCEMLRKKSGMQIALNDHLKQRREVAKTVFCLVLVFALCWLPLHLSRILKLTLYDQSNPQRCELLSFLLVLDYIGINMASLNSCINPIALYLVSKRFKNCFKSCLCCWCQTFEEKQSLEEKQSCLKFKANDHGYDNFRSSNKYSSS

Oryctolagus cuniculus = species on record: Oryctolagus cuniculus; assay: Compound was tested for its inhibition of ET-1 induced arachidonic acid accumulation in rabbit renal artery vascular smooth muscle cells; assay type: functional
[2] = biological target: Endothelin A receptor (Oryctolagus cuniculus); assay: Displacement of [125I]-ET-1 from Endothelin A receptor of rabbit renal artery vascular smooth muscle cells

SMILES | IC50 [1] | IC50 (Oryctolagus cuniculus) | IC50 [2]
CC[C@H](C)[C@H](NC(=O)[C@H](CC(=O)O)NC(=O)[C@H](CC(C)C)NC(=O)[C@H](Cc1c[nH]cn1)NC(C)=O)C(=O)N[C@H](C(=O)N[C@@H](Cc1c[nH]c2ccccc12)C(=O)O)[C@@H](C)CC (Ac-HLDIIW-OH) | > 50000 nM |  | 
CC[C@H](C)[C@H](NC(=O)[C@H](CC(=O)O)NC(=O)[C@H](CCC(=O)O)NC(=O)[C@@H](Cc1ccccc1)NC(C)=O)C(=O)N[C@H](C(=O)N[C@@H](Cc1c[nH]c2ccccc12)C(=O)O)[C@@H](C)CC (Ac-[dF]EDIIW-OH) |  | 600 nM | 
CC[C@H](C)[C@H](NC(=O)[C@H](CC(=O)O)NC(=O)[C@@H](Cc1ccccc1)NC(C)=O)C(=O)N[C@H](C(=O)N[C@@H](Cc1c[nH]c2ccccc12)C(=O)O)[C@@H](C)CC (Ac-[dF]DIIW-OH) |  |  | 9.1 µM

Second part, the molecule after the results:

IC50 [1] | IC50 (Oryctolagus cuniculus) | IC50 [2] | SMILES
50 nM |  |  | CC[C@H](C)[C@H](NC(=O)[C@H](CC(=O)O)NC(=O)[C@H](Cc1ccccc1)NC(=O)[C@@H](Cc1ccccc1)NC(C)=O)C(=O)N[C@H](C(=O)N[C@@H](Cc1c[nH]c2ccccc12)C(=O)O)[C@@H](C)CC (Ac-[dF]FDIIW-OH)
140 nM |  |  | CC[C@H](C)[C@H](NC(=O)[C@H](CC(=O)O)NC(=O)[C@H](CC(C)C)NC(=O)[C@@H](Cc1ccccc1)NC(C)=O)C(=O)N[C@H](C(=O)N[C@@H](Cc1c[nH]c2ccccc12)C(=O)O)[C@@H](C)CC (Ac-[dF]LDIIW-OH)
30 nM | 1600 nM |  | CC[C@H](C)[C@H](NC(=O)[C@H](CC(=O)O)NC(=O)[C@@H](Cc1ccccc1)NC(=O)[C@@H](Cc1ccccc1)NC(C)=O)C(=O)N[C@H](C(=O)N[C@@H](Cc1c[nH]c2ccccc12)C(=O)O)[C@@H](C)CC (Ac-[dF][dF]DIIW-OH)
